Data taken from PubChem BioAssay AID179 (DTP/NCI, 2004).
pEC50, pIC50: −log10 of the molar value. Values joined by “and” are separate entries in the source; they are usually repeats but may differ in a detail not shown here. Identical values can stand only once. Active and inactive are the calls of the source.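 How the source made its calls: active means compounds giving half or more protection of infected cells from virus-caused growth loss, again on retest; inactive means the rest.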

System: CEM cells HIV-1 protection, formazan growth assay
Assay: NCI AIDS Antiviral Assay
Details: for pIC50: measured here: growth of uninfected CEM cells
Outline: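 CEM (human) cells, HIV-1 infected vs uninfected, 5-point dosing, formazan growth read-out. Retest threshold 50% protection.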

| Structure (SMILES) | pEC50 | pIC50 | outcome |
| --- | --- | --- | --- |
| CCN(CC)CCCNc1nc2ccccc2c2c1ncn2CC(C)C | < 3.70 | 4.38 |  |
| CCC12CCCN(Cc3ccccc3)C1c1c(n(C)c3ccccc13)C(C(=O)O)C2 (configuration not stated) | < 5.11 | < 5.11 |  |
| CC(C)C(C=O)C(O)(C(F)(F)F)C(F)(F)F (configuration not stated) | < 3.70 | < 3.70 |  |
| COC(=O)C(=O)C(C(=O)C(=O)Nc1ccc([N+](=O)[O-])cc1[N+](=O)[O-])c1nc2ccc([N+](=O)[O-])cc2[nH]c1=O (configuration not stated) | < 3.33 | 3.85 |  |
| CC(C)C(N)S(=O)(=O)O (configuration not stated) | < 3.70 | < 3.70 |  |
| O=C1CCCC2=C1CC1=C(CCCC1=O)N2c1ccccc1C(=O)O | < 3.70 | < 3.70 |  |
| O=c1c2cc(Br)ccc2[nH]c(=S)n1-c1ccccc1 | < 4.39 | < 4.39 |  |
| N#Cc1cccc(/C=C2\CCc3ccccc3C2=O)c1 | < 4.55 | 4.68 |  |
| C=CCc1cc(/C(CC)=C(/CC)c2ccc(OCCN(CC)CC)c(CC=C)c2)ccc1OCCN(CC)CC | < 3.70 | 5.08 |  |
| NC(=O)C(N/N=C(/C(=O)c1ccccc1)c1ccccc1)c1ccccc1 (configuration not stated) | < 3.70 | 4.35 |  |
| CCCCCCC(/C=N/O)C(C)(O)CCC (configuration not stated) | < 3.95 | < 3.95 |  |
| CC1C2CCC3C4CC=C5CC(N(C)C)CCC5(C)C4CCC32CN1C (configuration not stated) | < 3.70 | 4.38 |  |
| CN1CCN(CCCCN2c3ccccc3Sc3ccc(C(=O)c4ccccc4)cc32)CC1 | < 4.00 | 5.35 |  |
| CC1CN(C=O)CC(C)N1CCN1C(C)CN(C=O)CC1C (configuration not stated) | < 3.54 | < 3.54 |  |
| Cc1nc2c(O)cc(Br)c(O)c2nc1C |  |  | inactive |
| CN(C)CCNC(=O)c1cccc2c1Oc1c(cccc1[N+](=O)[O-])O2 | < 4.70 | 6.61 |  |
| COC(=O)/C(=C\C(=O)c1ccc(Br)cc1)NN=C(c1ccccc1)c1ccccc1 | < 3.70 | < 3.70 |  |
| N/C(=C\c1ccc(OCc2ccccc2)c(OCc2ccccc2)c1[N+](=O)[O-])C(=O)O |  |  | inactive |
| O=[N+]([O-])c1cc([N+](=O)[O-])c(/C=C/c2ccc(Cl)c(Cl)c2)cc1/C=C/c1ccc(Cl)c(Cl)c1 | < 4.71 | < 4.71 |  |
| Cc1cc(C=O)c(C)c2c1[nH]c1ccccc12 | < 3.70 | 5.12 |  |
| NN1C(=O)C(CCO)S/C1=N/N=C1/SC(CCO)C(=O)N1N (configuration not stated) | < 4.13 | < 4.13 |  |
| CC(C)(C)SSCCN | < 3.70 | < 3.70 |  |
| C[N+]12CCCCC1CC(=O)CC2 (configuration not stated) | < 3.07 | < 3.07 |  |

| Structure (SMILES) | pEC50 | pIC50 | outcome |
| --- | --- | --- | --- |
| Cc1ccc(S(=O)(=O)OCC/C(=C\[Si](C)(C)C)c2ccccc2)cc1 |  |  | inactive |
| CC(=O)n1c2ccccc2c2nc3nc(Oc4ccc(C)cc4)c4ccccc4c3cc21 | < 5.18 | < 5.18 |  |
| CC(=N/NC(=S)N1CCCCC1)/C(C)=N\NC(=S)N1CCCCC1 | < 3.70 | 5.65 |  |
| CSc1nnc(C(C#N)C#N)nn1 |  |  | inactive |
| NC(=O)NC1C(C(=O)O)N(Cc2ccccc2)C(=O)N1Cc1ccccc1 (configuration not stated) | < 3.31 | < 3.31 |  |
| N#Cc1c(N2CCCCC2)[nH]c(=O)n(-c2ccccc2)c1=S | < 3.70 | < 3.70 |  |
| CCOC(=O)N/N=C(\CC)OCC | < 3.70 | < 3.70 |  |
| Cc1c/c(=N/NC(=O)c2ccncc2)n2nc(N)sc2n1 | < 3.70 | < 3.70 |  |
| COc1cc(/C=C2\CCC(C)C3=C(c4cc(OC)c(OC)c(OC)c4)C(C#N)=C(N)OC32)cc(OC)c1OC (configuration not stated) |  |  | inactive |
| COc1ccc(/C=N/NS(=O)(=O)c2ccc(/C=C3\NC(=O)NC3=O)cc2)cc1 | < 3.70 | < 3.70 |  |
| O=C1c2ccccc2C(=O)N1OCCCCON1C(=O)c2ccccc2C1=O | < 3.70 | < 3.70 |  |
| COC(=O)c1ccccc1NC(=S)NN(C)C | < 3.70 | 3.82 |  |
| C=C(C)[C@@H]1CC[C@]2(C(=O)O)CC[C@]3(C)[C@H](CCC4[C@@]5(C)CC[C@H](C(=O)/C=C/c6ccc(O)c(O)c6)C(C)(C)[C@@H]5CC[C@]43C)[C@@H]12 (some centres not stated) | < 3.70 | 5.64 |  |
| O=[N+]([O-])/C(Cl)=C(\NCCN/C(C(Cl)=C(Cl)Cl)=C(/Cl)[N+](=O)[O-])C(Cl)=C(Cl)Cl | < 3.70 | 4.21 |  |
| CNC(=S)N/N=C(\C)c1cc(OC)c(OC)cc1O | < 3.70 | < 3.70 |  |
| CCOC(=O)C1=NN(c2ccccc2)C(=O)/C1=C\N1C(=O)CC(=O)NC1=S | < 3.70 | 3.71 |  |
| O=C1CC(c2ccc(Cl)cc2)=Nc2ccccc2N1 | 5.20 | 4.02 |  |
| O=CNc1cccc2c(=O)[nH][nH]c(=O)c12 | < 3.90 | < 3.90 |  |
| CNc1ncnc2c1ncn2C1OC(CO)CC1F (configuration not stated) | 3.80 | < 3.70 |  |
| C/C(O)=C(\C=N\C(=S)N=Nc1c(O)[nH]c2ccccc12)C(=O)Nc1ccccc1C | < 3.70 | < 3.70 |  |
| CC(C)(O)C1CCC2(C)CC(=O)NCCN12 (configuration not stated) | < 3.40 | < 3.40 |  |
| CC(Nc1n[nH]c(=O)c2c1nnn2Cc1ccccc1)c1ccccc1 (configuration not stated) | 4.26 and 3.90 | 4.01 and 3.35 |  |
| O=C(/C(=C/c1ccccc1Cl)c1ccccc1)c1ccccc1 | < 5.07 | < 5.07 |  |

| Structure (SMILES) | pEC50 | pIC50 | outcome |
| --- | --- | --- | --- |
| O=C(O)c1ccc2nc(-c3ccccn3)c(-c3ccccn3)nc2c1 | < 3.70 | < 3.70 |  |
| CN(C)c1ccc(/C(Br)=C2\OC(=O)c3ccccc32)cc1 | < 3.70 | 3.95 |  |
| Cc1nc(N)c2nc(Nc3ccccc3)sc2n1 | < 3.85 | 4.18 |  |
| COc1ccc2nc3cccc([N+](=O)[O-])c3c(NCCN(CCO)CCO)c2c1 | < 5.70 | 7.01 |  |
| NC(=O)C(=O)N/N=C(\CC1(O)C(=O)Nc2ccccc21)c1ccc2ccccc2c1 (configuration not stated) | < 4.47 | < 4.47 |  |
| CN(C(=S)Nc1ccccc1)c1cc(N2CCCC2)ccn1 | < 3.70 | 4.53 |  |
| O=[N+]([O-])c1ccccc1S(=O)(=O)c1cc(Cl)cc2c1NCCC2 | < 3.82 | 4.54 |  |
| Cc1cc2c(cc1C)C(=O)C1(C2)Cc2c(ccc(C)c2C)C1=O (configuration not stated) | < 4.00 | < 4.00 |  |
| O=C1N(Cc2ccccc2)[C@H]2CS(=O)(=O)C[C@@H]2N1Cc1ccccc1 | < 3.70 | < 3.70 |  |
| COc1cccc(/C=C/C(=O)c2sc(C(N)=S)nc2C)c1O | < 4.95 | < 4.95 |  |
| CC[C@@H]1CN2CCc3c([nH]c4ccccc34)[C@@H]2C[C@@H]1/C(=C\OC)C(=O)OC | < 4.19 | < 4.19 |  |
| O=Nc1ccc(O)cc1O | < 3.70 | 3.83 |  |
| Cc1cc(Cl)ccc1N=C1NC(=O)C(CC(=O)Nc2ccc(Cl)cc2Cl)S1 (configuration not stated) | < 3.39 | 3.65 |  |
| NC(C(=O)O)C(O)C(=O)O (configuration not stated) |  |  | inactive |
| Cn1c(=O)oc2ccc(S(=O)(=O)Nc3ccc(Cl)cc3[N+](=O)[O-])cc21 | < 3.70 | 4.55 |  |
| C1CCC(CSSCC2(N3CCCC3)CCCCC2)(N2CCCC2)CC1 | < 3.70 | < 4.00 |  |
| Clc1ccc(C(Cc2cccc(Cl)c2)c2c(Cl)nc(N3CCNCC3)nc2Cl)cc1 (configuration not stated) | < 3.70 | 4.76 |  |
| N#C/C(=C\c1ccccc1)c1cccc(F)c1 | < 3.70 | 4.33 |  |
| COC1OC2COC(C)(C)OC2C(OC(C)=O)C1NC(=O)N(CCCl)N=O (configuration not stated) | < 3.64 | < 3.64 |  |
| CC1CCC2(CC1)N=C1CCC(C)CC1C1(CCC(C)CC1)N2 (configuration not stated) | < 3.70 | 4.01 |  |
| N#CCC(=O)NC1C2CC3CC(C2)CC1C3 (configuration not stated) | < 3.64 | 4.46 |  |
| CCCC(=O)N[C@@H](Cc1cc(I)c(O)c(I)c1)C(=O)NCCCNCCCCNCCCNC(=O)[C@@H](N)CCCN=C(N)N | < 4.00 | 4.35 |  |
| O=C(NCCCCN1CC2CCCC2C1)C(C1CCCCC1)C1CCCCC1 (configuration not stated) | < 3.70 | 4.97 |  |

| Structure (SMILES) | pEC50 | pIC50 | outcome |
| --- | --- | --- | --- |
| COc1ccccc1NC(=O)CC(=O)n1nc(C)c(N=Nc2ccccc2Cl)c1C |  |  | inactive |
| CN1C(=O)c2c(c3c4ccccc4n(C4OC(CO)C(O)C(O)C4O)c3c3[nH]c4ccccc4c23)C1=O (configuration not stated) | < 3.70 | 5.41 |  |
| CCCCCCCCCCCCCCCC=C(c1cc(Br)c(OC)c(C(=O)OC)c1)c1cc(Br)c(OC)c(C(=O)OC)c1 | < 4.56 | < 4.56 |  |
| COc1ccc(NC(=O)c2cc3cc(N=Nc4ccc(Br)cc4)ccc3oc2=O)cc1 |  |  | inactive |
| NNC(=O)CCC(NS(=O)(=O)c1ccc(Cl)cc1)C(=O)NN (configuration not stated) | < 3.70 | 3.84 |  |
| CCCCN[C@H]1C2C3CC4C5CC(C42)C1(C)C53 (some centres not stated) | < 3.03 | 3.42 |  |
| O=C(O)CCCCCCCc1cccc(OCCOCCO)c1 | < 4.00 | < 4.00 |  |
| CC(=O)NC1C(CO)OC(n2cnc([N+](=O)[O-])c2C(N)=O)C1O (configuration not stated) | < 3.70 | < 3.70 |  |
| COc1ccc(S(=O)(=O)n2c3c(c4ccccc42)[C@@H]2[C@@H](CCCN2C(=O)CS(=O)c2ccc(C)cc2)[C@H](Cl)C3)cc1 (some centres not stated) | < 3.70 | < 3.70 |  |
| COc1ccc(OC)c2c(C(=O)O)c(C(C)c3ccccc3)ccc12 (configuration not stated) |  |  | inactive |
| CCCOC1OC(CS(=O)(=O)O)C(OC(C)=O)C(OC(C)=O)C1OC(C)=O (configuration not stated) |  |  | inactive |
| O=C(/C=C/c1ccc(O)c(O)c1)OCc1ccccc1 | < 4.92 | 4.95 |  |
| O=C(/C=C/c1ccco1)N1CCN(Cc2ccccc2)CC1 | < 3.55 | 3.58 |  |
| NCCSSCc1ccccc1CSSCCN |  |  | inactive |
| CCOC(=O)C1(Sc2ccccc2)CCC2c3[nH]c4ccccc4c3CCN2C1=O (configuration not stated) | < 4.91 | < 4.91 |  |
| Nc1ccccc1C1=Nc2cncnc2NC1 | < 3.38 | 3.53 |  |
| CO/C=C1\CCC2c3c(c4ccccc4n3C)CC1N2Cc1ccccc1 (configuration not stated) | < 4.84 | 5.09 |  |
| Cc1ccc(/C=C2\CCCC(CN(C)C)C2=O)cc1 (configuration not stated) | < 3.70 | 6.21 |  |
| CC(=O)N1c2ccccc2C(C)C1c1[nH]c2ccccc2c1C (configuration not stated) | < 3.70 | 4.52 |  |
| COC(=O)C1=CC2C(=O)c3ccccc3C1(c1ccccc1)N2C1CCCCC1 (configuration not stated) | < 3.70 | 4.67 |  |
